Measured values taken from patent US20260176266A1, “PIPERIDINOPYRIMIDINE DERIVATIVE, PREPARATION METHOD THEREFOR AND USE THEREOF IN MEDICINE” (TUOJIE BIOTECH (SHANGHAI) CO., LTD., priority 2022, published 2026).

Legend:
[1] = target: CDK7/Cyclin H/MAT1 (Homo sapiens, UniProt P50613); experiment: ADP-Glo kinase assay, CDK7; type: biochemical; conditions: 80 nM CDK7/Cyclin H/MAT1, 70 μM ATP (Km), MBP, 60 min; read-out: inhibitory activity (IC50, nM) CDK7
Experimental: (§1) The ADP-Glo kinase assay was used for testing the activity of CDKs. The compounds were diluted in 384-well plates using Echo. The starting concentration was 10 μM and was 3-fold diluted to obtain 10 concentration points, each tested in duplicate, and the final concentration of DMSO in the assay system was 1%. CDK solutions (the final concentrations were 16.5 nM CDK1/CyclinB, 1 nM CDK2/CyclinE1, 16.3 nM CDK4/CyclinD1, 11.5 nM CDK5/p25, 15.7 nM CDK6/CyclinD3, 80 nM CDK7/Cyclin H/MAT1, 15.3 nM CDK9/Cyclin T1, and 150 nM CDK12/CyclinK) prepared in assay buffer were added at 2.5 μL, and the enzymes and compounds were pre-incubated at room temperature for 10 min. ATP (the concentration was Km) & substrate solutions (20 μM ATP & 0.1 mg/mL Histone H1 Protein for CDK1/CyclinB, 15 μM ATP & 0.1 mg/mL Histone H1 Protein for CDK2/CyclinE1, 200 μM ATP & 0.2 mg/mL DYRKtide peptide for CDK4/CyclinD1, 10 μM ATP & 0.1 mg/mL Histone H1 Protein for CDK5/p25, 200 μM ATP & 0.1 mg/mL Histone H1 Protein for CDK6/CyclinD3, 70 μM ATP & 0.2 mg/mL MBP for CDK7/Cyclin H/MAT1, 60 μM ATP & 0.2 mg/mL PDKtide for CDK9/Cyclin T1, and 20 μM ATP & 80 μM pS7-CTD peptide for CDK12/CyclinK) prepared in assay buffer were added at 2.5 μL. After thorough mixing, the plates were incubated at room temperature, with CDK1/4/9/12/13 incubated for 120 min and CDK2/5/6/7 incubated for 60 min. ADP-Glo reagents were added at 4 μL, and the plates were incubated at room temperature for 40 min. Kinase detection reagents were added at 8 μL, and the plates were incubated at room temperature for 40 min. Readings were taken using an Envision multimode microplate reader. Data were processed using GraphPad Prism 8, and IC50 was calculated.
(§2) [formula] • X: the logarithm of the compound concentration; Y: % inhibition.

[2] = Human liver microsome metabolism study; type: in vitro ADME; conditions: human liver microsomes
Experimental: 222.5 μL of human liver microsomes (protein concentration: 1 mg/mL) and 25 μL of NADPH ([…]) were added to an incubation plate and pre-heated for 10 min. 2.5 μL of control compound and test compound (100 μM) were added.
[…] The reaction was stopped by adding 5 volumes of cold acetonitrile containing IS (100 nM alprazolam, 200 nM caffeine, and 100 nM tolbutamide). The reaction mixture was centrifuged, and 100 μL of the supernatant was collected and mixed with 100 μL of ultrapure H2O. Then the mixture was analyzed by LC-MS/MS.
The slope value k was determined by linear regression of the natural logarithm of a curve of the parent drug remaining percentage versus incubation time.
The in-vitro half-life (in-vitro T1/2) was determined by the slope value:
Using the following equation (the average of repeated measurements), the in-vitro T½ (min) was converted to the in-vitro intrinsic clearance rate (in-vitro CLint, in μL/min/mg protein): […]

[3] = target: CDK2/CyclinE1 (Homo sapiens, UniProt P24941); experiment: ADP-Glo kinase assay, CDK2; type: biochemical; conditions: 1 nM CDK2/CyclinE1, 15 μM ATP (Km), Histone H1, 60 min; read-out: inhibitory activity (IC50, nM) CDK2
Experimental: as §1, §2

Chain of CDK7/Cyclin H/MAT1 (P50613 whole entry, species assumed): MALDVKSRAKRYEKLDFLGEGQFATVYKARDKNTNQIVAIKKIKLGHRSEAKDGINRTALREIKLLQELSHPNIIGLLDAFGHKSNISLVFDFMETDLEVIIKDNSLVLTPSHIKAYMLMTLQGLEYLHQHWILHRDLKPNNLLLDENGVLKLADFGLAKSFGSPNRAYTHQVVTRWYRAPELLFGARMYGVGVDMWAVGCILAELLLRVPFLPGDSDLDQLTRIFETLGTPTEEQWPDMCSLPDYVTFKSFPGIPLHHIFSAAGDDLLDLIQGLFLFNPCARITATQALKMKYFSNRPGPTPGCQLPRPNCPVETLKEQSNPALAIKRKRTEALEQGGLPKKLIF
Chain of CDK7/Cyclin H/MAT1 (P51946 whole entry partner, species assumed): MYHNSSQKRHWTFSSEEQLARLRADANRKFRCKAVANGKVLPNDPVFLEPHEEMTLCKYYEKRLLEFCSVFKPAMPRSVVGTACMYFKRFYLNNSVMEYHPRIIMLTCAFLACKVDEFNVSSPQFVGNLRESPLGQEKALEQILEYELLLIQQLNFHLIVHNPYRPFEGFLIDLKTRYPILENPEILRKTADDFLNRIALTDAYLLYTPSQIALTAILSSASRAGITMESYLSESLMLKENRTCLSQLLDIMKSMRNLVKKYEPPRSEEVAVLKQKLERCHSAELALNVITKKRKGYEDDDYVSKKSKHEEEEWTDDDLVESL
Chain of CDK7/Cyclin H/MAT1 (P51948 whole entry partner, species assumed): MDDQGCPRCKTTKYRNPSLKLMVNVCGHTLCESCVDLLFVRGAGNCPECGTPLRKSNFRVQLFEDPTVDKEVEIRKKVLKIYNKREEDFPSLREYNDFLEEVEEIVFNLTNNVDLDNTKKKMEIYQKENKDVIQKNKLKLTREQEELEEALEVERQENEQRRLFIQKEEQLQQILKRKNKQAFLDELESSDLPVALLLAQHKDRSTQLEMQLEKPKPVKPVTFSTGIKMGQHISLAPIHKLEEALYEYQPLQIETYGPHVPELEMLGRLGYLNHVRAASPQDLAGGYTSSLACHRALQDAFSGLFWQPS

IC50 [1]: 25.2 nM
half-life at 1 μM ([2]; in-vitro half-life): 1.22 h
microsomal CLint at 1 μM ([2]; in-vitro intrinsic clearance): 19 µL/min/mg
Remaining amount % at 0.5 min ([2]; incubation 0.5 min): 100.00%
Remaining amount % at 5 min ([2]; incubation 5 min): 91.32%
Remaining amount % at 15 min ([2]; incubation 15 min): 78.60%
Remaining amount % at 30 min ([2]; incubation 30 min): 68.95%
Remaining amount % at 60 min ([2]; incubation 60 min): 55.59%
IC50 [3]: 933 nM
SMILES: C[C@@H]1Cc2cnc(NCc3ccn(C)n3)nc2CN1C(=O)[C@H]1CCN(C)C[C@@H]1c1ccccc1 [Janssen-01, reference compound]
